Source: US11976047B1, “4,5-bis(4-bromo-phenyl)-1-hexyl-2-(2- methoxyphenyl)-1H-imidazole as an antimicrobial compound” (KING FAISAL UNIVERSITY, priority 2023, dated 2024)

Assays:
Format in all cases: cell-based
Conditions in all cases: after 10, 20, 40 and 60 minutes at all dilutions 1:100, 1:200, 1:400, 1:800 (summary in words)
Staphylococcus aureus = test: Antimicrobial screening by agar dilution, Staphylococcus aureus
Procedure: (§1) The antimicrobial properties of the 4,5-bis(4-bromo-phenyl)-1-hexyl-2-(2-methoxyphenyl)-1H-imidazole was studied by the method of agar dilution. Test solutions of each compound was prepared in concentration of 1% using dimethylformamide as a solvent then they are diluted in physiological solution to obtain the final experimental dilutions 1:100, 1:200, 1:400, 1:800. The effect of these substances are compared with furacillin in a controlled study. The testing microbes used were gram positive bacteria Staphylococcus aureus, gram negative bacteria Pseudomonas aeruginosa and Escherichia coli and Candida albicans fungi were taken. The experiments used for this survey were meat-pentonlu agar (EPA) for cultivation of bacteria and Saburo environment for fungi. Each experiment used 1 ml of test solution on each plate 500 min. Add 2 drops of emulsified with microbes feel. All experimental samples were taken from the agar after 10, 20, 40, 60 minutes in the environment on the basis of Patrk planted. Bacteria were cultivated at a temperature of 37° C. for 1 day and the mushroom was kept in a thermostat for 2 hours at a temperature of 28° C. in the. Then results were checked.

Escherichia coli = test: Antimicrobial screening by agar dilution, Escherichia coli
Procedure: as §1

Pseudomonas aeruginosa = test: Antimicrobial screening by agar dilution, Pseudomonas aeruginosa
Procedure: as §1

Candida albicans = test: Antimicrobial (antifungal) screening by agar dilution, Candida albicans
Procedure: as §1

CCCCCCn1c(-c2ccccc2OC)nc(-c2ccc(Br)cc2)c1-c1ccc(Br)cc1 [4,5-bis(4-bromo-phenyl)-1-hexyl-2-(2-methoxyphenyl)-1H-imidazole]
highest inhibition activity: inhibition activity, Staphylococcus aureus (Staphylococcus aureus) | inhibition activity, Escherichia coli (Escherichia coli) | inhibition activity, Pseudomonas aeruginosa (Pseudomonas aeruginosa) | inhibition activity, Candida albicans (Candida albicans)
